Test: Measurement of dissolution enthalpy by solution calorimetry (TAM IV Microcalorimeter), relative temperature as a function of time
Assay type: physicochemical
Conditions: 250 mg sample in 100 mL water, 25° C., stirring at 500 rpm, ampoule broken; FIGS. 1-4
Protocol: The TAM IV Microcalorimeter was used to detect temperature changes of solutions with an accuracy of 0.001 K, which evolves from the dissolution enthalpy of the substances being tested.
Different formulations of amino acids are placed in an ampoule, surrounded by aqueous solvent. After the ampoule has been ruptured, the temperature change is analyzed.
Experimental Setup: • 250 mg of each sample were filled into a 1 mL crushing ampoule at ambient conditions without any pre-treatment. • The ampoules were closed with a silicone stopper and wax and inserted into the stirrer of the solution calorimeter and immersed into 100 mL water. • The system was then equilibrated at 25° C. while stirring at 500 rpm before the ampoule was broken. • Calibrations with a heat pulse of 2.5 J at a power of 250 mW were performed before and after the break. • For data evaluation, the slope of the baseline before breaking the sample was set to zero by differentiation of the curve, shift to zero and re-integration.
For spray dried multicomponent amino acids the enthalpy of solution measurement have been carried out on a special ampule calorimeter equipped with an isothermal shell. In the course of the calorimetry measurement, the stability of the temperature-control system was maintained constant to within 10^−4K. All experiments were performed three times and were reproducible within 5%.

| SMILES | Relative temperature as a function of time on dissolution (enthalpy of solution) |
| --- | --- |
| CC(C)C[C@H](N)C(=O)O [L-leucine] | steady decrease in the temperature |
| O=C(O)[C@@H]1CCCN1 [L-proline] | strong increase in the temperature is observed followed by a continous decrease |
